Columns and labels:
[1] = Serum lipoprotein (VLDL+LDL) cholesterol alteration by the compound at 50 mg/kg/day dose in normocholesterolemic Male S.E.A. Japanese quail with 5-7 weeks of age; assay type: functional, Coturnix
[2] = Total Serum lipoprotein cholesterol alteration by the compound at 50 mg/kg/day dose in normocholesterolemic Male S.E.A. Japanese quail with 5-7 weeks of age
[3] = Serum high density lipoprotein (HDL) cholesterol alteration by the compound at 50 mg/kg/day dose in normocholesterolemic Male S.E.A. Japanese quail with 5-7 weeks of age; assay type: functional, Coturnix

| SMILES | T/C [1] | T/C [2] | T/C [3] |
| --- | --- | --- | --- |
| COc1c2c(c(OC)c3c(=O)cc(C)oc13)CCO2 | 0.74 | 1.07 | 1.17 |
| COc1c2occc2c(OC)c2c(=O)cc(CN(C)C)oc12 | 0.37 | 0.82 | 0.92 |
| COc1c2occc2c(OC)c2c(=O)cc(C(C)C)oc12 | 0.49 | 1.17 | 1.4 |
| Cc1cc(=O)c2cc3ccoc3cc2o1 | 0.84 | 1.01 | 1.05 |
| COc1c2occc2c(OC)c2c(=O)ccoc12 | 0.42 | 1.15 | 1.36 |
| COc1c2c(c(OC)c3occc13)OC(C)CC2=O (stereo unspecified) | 0.55 | 1.24 | 1.45 |
| COCc1cc(=O)c2c(OC)c3ccoc3c(OC)c2o1 | 0.57 | 1.35 | 1.63 |
| COc1c2occc2c(OC)c2c(=O)cc(CSc3ccccc3)oc12 | 0.43 | 1.09 | 1.33 |
| COc1c2occc2cc2c(=O)cc(C)oc12 | 0.77 | 1.09 | 1.19 |
| COc1c2occc2c(OC)c2c(=O)cc(C)oc12 [KHELLIN] | 0.37 | 1.21 | 1.46 |
| COc1c2occc2c(OC)c2c(=O)cc(CSC)oc12 [TIMEFURONE] | 0.47 | 1.36 | 1.68 |
| COc1c2ccoc2cc2oc(C)cc(=O)c12 [VISNAGIN] | 0.51 | 1.21 | 1.42 |

— ChEMBL document CHEMBL1122404, “Khellin analogues. 1. General topological requirements for lipid-altering activity in furochromones” (1983)
